# Data as given in patent US20150315202A1, “CHLORIN DERIVATIVE USEFUL IN PHOTODYNAMIC THERAPY AND DIAGNOSIS” (RMW CHO GROUP LIMITED, priority 2012, published 2015).
# Experiments:
# Design in all cases: species or system human
# lung cancer [1] = assay: In vivo studies Example 6: patient, oral chlorin e4 sodium plus laser and LED light; settings: immediately after the last of three courses
# Description: (§1) A patient with lung cancer was treated successfully. The treatment consisted of three courses. For each course, five doses of 62.5-187.5 mg chlorin e4 sodium were administered orally over the course of eight days. 24-48 hours after each oral dose of chlorin e4 sodium, the patient was treated with laser and LED light having a wavelength of 660 nm and 760 nm.
# lung cancer [2] = assay: In vivo studies Example 5: patient, oral chlorin e4 sodium plus laser and LED light; settings: three months after one course
# Description: as §1, with “one course of” for “three courses. For each course,”, “sodium” for “sodium were”
# [3] = test system: advanced metastatic kidney disease with metastases in the gall bladder, liver and lung; assay: In vivo studies Example 3: patient, oral chlorin e4 sodium plus laser and LED light
# Description: as §1, with “advanced metastatic kidney disease with metastases in the gall bladder, liver and lung,” for “lung cancer”
# Subsequently the patient was treated with a further two courses. Again, for each course, five doses of 62.5-187.5 mg chlorin e4 sodium were administered orally over the course of eight days. 24-48 hours after each oral dose of chlorin e4 sodium, the patient was treated with laser and LED light having a wavelength of 660 nm and 760 nm. Additionally an interstitial light treatment using a fine needle was performed on the liver and lung with an optical fibre laser having a wavelength of 660 nm and 760 nm.
# [4] = test system: lung cancer with metastases in the lymph nodes and sacrum bone; assay: In vivo studies Example 11: patient, oral chlorin e4 sodium plus laser and LED light
# Description: A patient with lung cancer with metastases in the lymph nodes and sacrum bone, was treated successfully. […] The treatment consisted of five courses. For each course, five doses of 62.5-187.5 mg chlorin e4 sodium were administered orally over the course of eight days. 24-48 hours after each oral dose of chlorin e4 sodium, the patient was treated with laser and LED light having a wavelength of 660 nm and 760 nm. Additionally, for two of the treatment courses, an interstitial light treatment using a fine needle was performed on the sacrum bone with an optical fibre laser having a wavelength of 660 nm and 760 nm. Additionally, mesothelium bone growth therapy was administered for the last two treatment courses.
# [5] = test system: advanced pancreatic cancer with metastases in the liver; assay: In vivo studies Example 7: patient, oral chlorin e4 sodium plus laser and LED light
# Description: as §1, with “advanced pancreatic” for “lung”, “cancer with metastases in the liver,” for “cancer”, “successfully. Prior to treatment the patient was in poor health generally and suffering from extreme weight loss, pain and other typical symptoms of advanced pancreatic cancer.” for “successfully.”, “About 24” for “24-48”
compound,measurement,setting,value
C=Cc1c(C)c2cc3nc(c(C)c4[nH]c(cc5nc(cc1[nH]2)C(C)=C5CC)c(C)c4C(=O)O)[C@@H](CCC(=O)O)[C@@H]3C [chlorin e4 sodium],CT scan finding,lung cancer [1],complete recovery from lung cancer
same,CT scan finding,lung cancer [2],tumour breakdown
same,Response (PET/CT),[3]; after a further two courses with interstitial light on liver and lung,good treatment response
same,Metastasis,[3]; after three courses,No further metastasis was observed
same,Tumours throughout the body (PET/CT),"[3]; before and two, three, five and 15 months after three courses",some tumours disappeared altogether and the remaining tumours reduced in size
same,Side effects,[3]; five courses,no side effects
same,Survival time,[3]; life expectancy prior to treatment only six months,two years and four months
same,Patient status,"[4]; 10 months after starting, four months after completion of treatment",alive and well
same,Response (PET/CT),"[4]; five courses, interstitial light on sacrum bone, mesothelium bone growth therapy for last two courses",complete response
same,Response in the pancreatic area (PET/CT),[5]; before and after three courses,improvements and a good treatment response
same,Pain,[5]; three courses,suffered less pain
same,Photosensitive reaction,[5]; three courses,no photosensitive reaction
